This passage reports IC50 results from patent US8916565B2, “Pyrrolopyrazine-spirocyclic piperidine amides as modulators of ion channels” (priority 2011, dated 2014).

A value given as a limit tells only on which side of the number the result lay.

Sequence of human NaV subtype, like NaV 1.7 (Q15858 whole entry): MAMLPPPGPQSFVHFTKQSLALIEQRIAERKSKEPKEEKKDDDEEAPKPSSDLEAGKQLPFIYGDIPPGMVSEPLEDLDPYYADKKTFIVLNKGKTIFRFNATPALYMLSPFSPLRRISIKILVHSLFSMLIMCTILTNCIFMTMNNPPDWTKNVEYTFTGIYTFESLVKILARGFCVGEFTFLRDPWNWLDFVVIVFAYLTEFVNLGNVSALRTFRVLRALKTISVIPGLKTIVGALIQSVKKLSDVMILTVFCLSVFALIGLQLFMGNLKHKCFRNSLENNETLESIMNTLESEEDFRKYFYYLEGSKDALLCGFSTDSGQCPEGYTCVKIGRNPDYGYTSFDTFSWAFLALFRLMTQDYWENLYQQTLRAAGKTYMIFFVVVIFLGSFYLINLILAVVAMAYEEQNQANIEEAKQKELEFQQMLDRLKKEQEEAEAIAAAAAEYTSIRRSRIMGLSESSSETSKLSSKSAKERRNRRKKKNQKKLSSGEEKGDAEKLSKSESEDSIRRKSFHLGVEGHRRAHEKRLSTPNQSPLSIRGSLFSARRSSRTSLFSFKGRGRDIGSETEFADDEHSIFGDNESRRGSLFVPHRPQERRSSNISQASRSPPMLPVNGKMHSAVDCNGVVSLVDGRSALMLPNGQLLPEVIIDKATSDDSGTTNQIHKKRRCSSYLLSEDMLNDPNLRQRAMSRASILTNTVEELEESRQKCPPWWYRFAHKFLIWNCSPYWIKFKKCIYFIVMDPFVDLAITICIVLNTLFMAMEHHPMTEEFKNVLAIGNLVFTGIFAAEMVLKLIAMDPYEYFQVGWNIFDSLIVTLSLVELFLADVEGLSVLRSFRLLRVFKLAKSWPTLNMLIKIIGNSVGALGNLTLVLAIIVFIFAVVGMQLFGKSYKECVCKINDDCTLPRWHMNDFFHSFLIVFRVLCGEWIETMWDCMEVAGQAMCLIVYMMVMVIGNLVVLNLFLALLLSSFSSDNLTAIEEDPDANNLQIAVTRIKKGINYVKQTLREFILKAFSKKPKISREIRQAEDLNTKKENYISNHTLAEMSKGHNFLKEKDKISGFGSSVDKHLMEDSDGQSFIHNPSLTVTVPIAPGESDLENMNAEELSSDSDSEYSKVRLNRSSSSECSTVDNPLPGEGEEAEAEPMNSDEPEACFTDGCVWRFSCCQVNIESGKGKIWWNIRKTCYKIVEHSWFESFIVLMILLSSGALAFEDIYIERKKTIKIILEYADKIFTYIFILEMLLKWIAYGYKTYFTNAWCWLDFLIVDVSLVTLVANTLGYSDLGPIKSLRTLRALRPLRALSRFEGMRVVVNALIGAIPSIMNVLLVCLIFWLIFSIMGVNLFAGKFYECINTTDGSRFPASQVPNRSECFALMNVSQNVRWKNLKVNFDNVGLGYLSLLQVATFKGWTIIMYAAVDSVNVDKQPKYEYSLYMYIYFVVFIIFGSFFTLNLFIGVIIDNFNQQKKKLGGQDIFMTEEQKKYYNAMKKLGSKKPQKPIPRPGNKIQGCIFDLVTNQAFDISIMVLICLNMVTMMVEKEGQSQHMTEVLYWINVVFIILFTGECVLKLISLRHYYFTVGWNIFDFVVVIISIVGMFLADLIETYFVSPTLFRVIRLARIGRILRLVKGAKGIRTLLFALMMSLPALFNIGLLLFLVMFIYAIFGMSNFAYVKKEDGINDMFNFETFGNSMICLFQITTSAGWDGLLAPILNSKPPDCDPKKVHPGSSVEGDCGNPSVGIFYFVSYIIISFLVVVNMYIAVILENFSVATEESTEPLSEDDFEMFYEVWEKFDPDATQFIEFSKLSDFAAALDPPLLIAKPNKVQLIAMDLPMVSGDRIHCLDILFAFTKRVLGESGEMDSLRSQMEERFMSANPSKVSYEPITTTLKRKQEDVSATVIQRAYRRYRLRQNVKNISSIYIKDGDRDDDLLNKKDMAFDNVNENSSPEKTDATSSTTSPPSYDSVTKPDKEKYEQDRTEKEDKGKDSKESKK

This test concerns the target human NaV subtype, like NaV 1.7 (Homo sapiens, UniProt Q15858). Description: E-VIPR optical membrane potential assay with electrical stimulation. It is filed as cell-based. The note with it: active against one or more sodium channels; Table 3 does not name the assay or NaV subtype; read-out: Binned Activity Data (IC50).
In the case of `CC(C)S(=O)(=O)c1ccc(C(=O)N2CCC3(CC2)c2ccc(C(=O)C(F)(F)F)n2C[C@H](C)N3C)cc1` [Compound 500], the IC50 (usually the point on the concentration scale where inhibition reaches its midpoint) was no more than 2000 nM.
Turning to `Cc1cc(C(=O)N2CCC3(CC2)c2ccc(C(=O)C(F)(F)F)n2CCN3C)ccc1-c1ccn(C)n1` [Compound 295], the IC50 was greater than 5000 nM.
For `CN1CCn2c(C(F)(F)F)ccc2C12CCN(C(=O)c1cccnc1N1CCCC1)CC2` [Compound 305] the value was no more than 2000 nM; for `COc1cc(C(=O)N2CCC3(CC2)c2cc(C(F)(F)F)c(C(F)(F)F)n2CCN3C)ccc1OC(C)C` [Compound 48], no more than 2000 nM.
For `COc1cc(C(=O)N2CCC3(CC2)c2c(Cl)cc(C(F)(F)F)n2CCN3C)ccc1OCC(C)(C)F` [Compound 258] the value was no more than 2000 nM; for `CCCCOc1cc(C(=O)N2CCC3(CC2)c2ccc(C(F)(F)F)n2CCN3C)ccc1OC` [Compound 212], no more than 2000 nM; for `Cc1cc(C(=O)N2CCC3(CC2)c2ccc(C(F)(F)F)n2CCN3CC(=O)N(C)C)ccc1OC(C)C` [Compound 723], no more than 2000 nM.
Take `COc1cc(C(=O)N2CCC3(CC2)NCCn2c(C(F)(F)F)ccc23)ccc1C(C)(C)CO` [Compound 133]: the IC50 was no more than 2000 nM.
The same measure for `COc1cc(C(=O)N2CCC3(CC2)c2ccc(C(=O)C(F)(F)F)n2CCN3C)ccc1COCCC(F)(F)F` [Compound 288]: no more than 2000 nM; for `CN1CCn2c(C(=O)C3(C)CC3)ccc2C12CCN(C(=O)c1ccc(O)c(Cl)c1)CC2` [Compound 19]: no more than 2000 nM; for `CCCCCc1ccc(C(=O)N2CCC3(CC2)c2ccc(Cl)n2CCN3C)cc1` [Compound 20]: no more than 2000 nM.
For `Cc1cc(C(=O)N2CCC3(CC2)c2ccc(C(=O)C(F)(F)F)n2CCN3C)ccc1-c1ccc(C#N)nc1` [Compound 216] the value was no more than 2000 nM; for `CNS(=O)(=O)c1ccc(C(=O)N2CCC3(CC2)c2ccc(C(=O)C(C)(C)C)n2CCN3C)cc1C` [Compound 561], no more than 2000 nM; for `Cc1cc(C(=O)N2CCC3(CC2)c2ccc(Cl)n2CCN3C)ccc1-c1ccccc1` [Compound 424], no more than 2000 nM.
The same measure for `CC(=O)c1ccc2n1CCN(C)C21CCN(C(=O)c2ccc(C(C)(C)O)c(F)c2)CC1` [Compound 703]: greater than 5000 nM; for `CC(C)Oc1ccc(C(=O)N2CCC3(CC2)c2ccc(C(=O)C4CC4)n2CCN3C)cc1Cl` [Compound 639]: no more than 2000 nM.
For `CN1CCn2c(C(=O)C(F)(F)F)ccc2C12CCN(C(=O)c1ccc(F)c(O)c1)CC2` [Compound 720], the IC50 was greater than 5000 nM.
For `CN1CCn2c(C(=O)C(F)(F)F)ccc2C12CCN(C(=O)c1ccc(OCC(C)(C)C)cc1)CC2` [Compound 494] the value was no more than 2000 nM; for `CN1CCn2c(C(=O)C(F)(F)F)ccc2C12CCN(C(=O)c1ccc(S(=O)(=O)C(C)(C)C)cc1)CC2` [Compound 502], greater than 5000 nM.
Take `CCOc1cc(C(=O)N2CCC3(CC2)NCCn2c(C(F)(F)F)ccc23)ccc1OC` [Compound 618]: the IC50 is greater than 5000 nM.
For `CN1CCn2c(Cl)ccc2C12CCN(C(=O)c1ccc(S(=O)(=O)NC3CC3)cc1)CC2` [Compound 352] the value was 2000 to 5000 nM; for `CC(C)Oc1ccc(C(=O)N2CCC3(CC2)c2ccc(C(=O)C4CC4)n2CCN3C)c(F)c1` [Compound 124], no more than 2000 nM; for `O=C(c1ccccc1Oc1ccccc1)N1CCC2(CC1)NCCn1c(C(F)(F)F)ccc12` [Compound 43], greater than 5000 nM.
With `CNS(=O)(=O)c1ccc(C(=O)N2CCC3(CC2)NCCn2c(C(F)(F)F)ccc23)cc1C` [Compound 283], the IC50 is 2000 to 5000 nM.
The same measure for `Cc1cc(C(=O)N2CCC3(CC2)c2c(Cl)cc(C(F)(F)F)n2CCN3C)ccc1OC(C)C` [Compound 560]: no more than 2000 nM; for `COc1cc(C(=O)N2CCC3(CC2)NC(C)(C)Cn2c(C(F)(F)F)ccc23)ccc1OC(C)C` [Compound 551]: no more than 2000 nM; for `CN1CCn2c(C(=O)C(F)(F)F)ccc2C12CCN(C(=O)c1ccc(COCCC(F)(F)F)cc1)CC2` [Compound 237]: no more than 2000 nM.
On to `COc1cc(C(=O)N2CCC3(CC2)c2c(Cl)cc(C(F)(F)F)n2CCN3C)ccc1COCCC(F)(F)F` [Compound 554], for which the IC50 is no more than 2000 nM.
The same measure for `Cc1ccc(C(=O)N2CCC3(CC2)c2ccc(C(=O)C(F)(F)F)n2CCN3C)cc1O` [Compound 597]: greater than 5000 nM; for `Cc1cc(C(=O)N2CCC3(CC2)c2ccc(C(=O)C(C)(C)C)n2CCN3C)ccc1C(C)(C)O` [Compound 523]: no more than 2000 nM; for `CN1CCn2c(C(F)(F)F)ccc2C12CCN(C(=O)c1cccnc1Oc1ccccc1)CC2` [Compound 422]: no more than 2000 nM.
For `CCS(=O)(=O)c1ccc(C(=O)N2CCC3(CC2)c2ccc(C(=O)C(C)(C)C)n2CCN3C)cc1C` [Compound 482] the value was 2000 to 5000 nM.
With `CC(C)Oc1ccc(C(=O)N2CCC3(CC2)c2ccc(C(=O)C(F)(F)F)n2CCN3C)cc1` [Compound 233], the IC50 is no more than 2000 nM.
The same measure for `COc1cc(C(=O)N2CCC3(CC2)N[C@H](C)Cn2c(C(F)(F)F)ccc23)ccc1OC(C)C` [Compound 179]: 2000 to 5000 nM.
The same measure for `COc1cc(C(=O)N2CCC3(CC2)c2ccc(C(F)(F)F)n2CCN3CC(F)F)ccc1OC(C)C` [Compound 706]: no more than 2000 nM.
With `CC(C)(O)c1ccc(C(=O)N2CCC3(CC2)c2ccc(C(F)(F)F)n2CCN3C2CC2)cc1` [Compound 451], the IC50 is greater than 5000 nM.
With `CC(C)Oc1ccc(C(=O)N2CCC3(CC2)c2ccc(C(F)(F)F)n2CCN3C)c(F)c1` [Compound 546], the IC50 was no more than 2000 nM.
On to `CN1CCn2c(Cl)ccc2C12CCN(C(=O)c1ccc(C(C)(C)O)c(F)c1)CC2` [Compound 387], for which the IC50 was no more than 2000 nM.
Regarding `CCCOc1cc(C(=O)N2CCC3(CC2)c2ccc(Cl)n2CCN3C)ccc1OC` [Compound 229], the IC50 was in the range of 2000 to 5000 nM.
The same measure for `CC(C)Oc1ccc(C(=O)N2CCC3(CC2)c2c(F)cc(C(F)(F)F)n2CCN3C)cc1CO` [Compound 390]: no more than 2000 nM; for `COc1cc(C(=O)N2CCC3(CC2)NC(C)(C)Cn2c(C(=O)C(F)(F)F)ccc23)ccc1OCCC(C)C` [Compound 686]: no more than 2000 nM.
Regarding `COc1ccc(C(=O)N2CCC3(CC2)NC(C)(C)Cn2c(C(C)=O)ccc23)cc1Cl` [Compound 204], the IC50 is greater than 5000 nM.
For `COc1cc(C(=O)N2CCC3(CC2)NCC(C)n2c(C(=O)C(F)(F)F)ccc23)ccc1OCCOC(F)(F)F` (stereo not shown) [Compound 171] the value was no more than 2000 nM.
For `CCNS(=O)(=O)c1ccc(C(=O)N2CCC3(CC2)c2ccc(Cl)n2CCN3C)cc1` [Compound 24] the value was 2000 to 5000 nM.
Take `COc1ccc(C(=O)N2CCC3(CC2)NC(C)(C)Cn2c(C(=O)C(F)(F)F)ccc23)nc1C` [Compound 490]: the IC50 was no more than 2000 nM.
As for `COc1ccc(C(=O)N2CCC3(CC2)c2ccc(C(=O)C(F)(F)F)n2C(C)(C)CN3C)cc1C` [Compound 223], the IC50 fell in the range of 2000 to 5000 nM.
On to `COc1cc(C(=O)N2CCC3(CC2)c2ccc(C(=O)C(F)(F)F)n2C(C)(C)CN3C)ccc1OC(C)C` [Compound 126], for which the IC50 was 2000 to 5000 nM.
The same measure for `COc1cc(C(=O)N2CCC3(CC2)c2ccc(C(F)(F)C(F)(F)F)n2CCN3C)ccc1OC(C)C` [Compound 722]: no more than 2000 nM; for `CC1Cn2c(C(F)(F)F)ccc2C2(CCN(C(=O)c3ccc(OC(C)C)c(F)c3)CC2)N1` (stereo not shown) [Compound 692]: no more than 2000 nM; for `Cc1cc(C(=O)N2CCC3(CC2)NCCn2c(C(F)(F)F)ccc23)ccc1S(=O)(=O)N(C)C` [Compound 265]: no more than 2000 nM.
As to `CC(=O)c1ccc2n1CCN(C)C21CCN(C(=O)c2ccc(CC(C)C)cc2)CC1` [Compound 5], the IC50 is no more than 2000 nM.
The same measure for `Cc1cc(C(=O)N2CCC3(CC2)c2ccc(C(F)(F)F)n2CCN3C)ccc1OCCO` [Compound 335]: no more than 2000 nM; for `CC[C@@H](C)Oc1ccc(C(=O)N2CCC3(CC2)c2ccc(C(C)=O)n2CCN3C)cc1OC` [Compound 572]: no more than 2000 nM.
For `CC(C)(O)c1ccc(C(=O)N2CCC3(CC2)c2ccc(C(F)(F)F)n2CCN3CC(F)(F)F)cc1` [Compound 366] the value was no more than 2000 nM; for `CN1CCn2c(C(F)(F)F)ccc2C12CCN(C(=O)c1ccccc1-c1ccccc1)CC2` [Compound 393], greater than 5000 nM; for `CN1CCn2c(C(F)(F)F)ccc2C12CCN(C(=O)c1ccccc1OC(F)(F)F)CC2` [Compound 272], 2000 to 5000 nM.
The same measure for `CCC(C)(C)c1ccc(C(=O)N2CCC3(CC2)NC(C)(C)Cn2c(C(=O)C(F)(F)F)ccc23)cc1` [Compound 408]: no more than 2000 nM.
For `COCC#Cc1ccc(C(=O)N2CCC3(CC2)c2ccc(Cl)n2CCN3C)cc1F` [Compound 36], the IC50 was greater than 5000 nM.
As for `Cc1cc(C(=O)N2CCC3(CC2)c2ccc(C(=O)C(F)(F)F)n2CCN3C)ccc1-c1c[nH]nc1C(F)(F)F` [Compound 303], the IC50 is greater than 5000 nM.
In the case of `COc1cc(C(=O)N2CCC3(CC2)c2ccc(C(F)(F)F)n2CCN3C)ccc1OCCO` [Compound 440], the IC50 is greater than 5000 nM.
Consider `CCOc1cc(C(=O)N2CCC3(CC2)c2ccc(C(F)(F)F)n2CCN3C)ccc1OC` [Compound 730], for which the IC50 is no more than 2000 nM.
For `Cc1cc(C(F)F)n2ncc(C(=O)N3CCC4(CC3)c3ccc(C(F)(F)F)n3CCN4C)c2n1` [Compound 371] the value was no more than 2000 nM; for `CC(C)Oc1ccc(C(=O)N2CCC3(CC2)c2ccc(C(=O)C(F)(F)F)n2CCN3C)cc1F` [Compound 40], no more than 2000 nM; for `COc1cc(C(=O)N2CCC3(CC2)c2c(Cl)cc(C(F)(F)F)n2CCN3C)ccc1OC(C)C` [Compound 9], no more than 2000 nM.
`COC(=O)N1CCn2c(C(F)(F)F)ccc2C12CCN(C(=O)c1ccc(OC(C)C)c(C)c1)CC2` [Compound 460]: the IC50 is no more than 2000 nM.
The same measure for `CN1CCn2c(ccc2C(F)(F)C(F)(F)F)C12CCN(C(=O)c1ccc(S(=O)(=O)NC3CC3)cc1)CC2` [Compound 289]: no more than 2000 nM.
Take `CN1CCn2c(C(F)(F)F)cc(F)c2C12CCN(C(=O)c1ccc(C(C)(C)O)cc1)CC2` [Compound 193]: the IC50 is no more than 2000 nM.
